In ChEMBL document CHEMBL5291721, “A preclinical secondary pharmacology resource illuminates target-adverse drug reaction associations of marketed drugs” (Nat Commun, 2023) one finds AC50 data, which are given here for 11 compounds.

Structures are written as SMILES. Where only a bound is given, the exact number is not on record here.

In general, AC50 refers to the midpoint of the concentration-response curve, whichever way the signal moves.

Test [1] deals with Sodium-dependent serotonin transporter (Homo sapiens, UniProt P31645).
Sequence of Sodium-dependent serotonin transporter (P31645 whole entry): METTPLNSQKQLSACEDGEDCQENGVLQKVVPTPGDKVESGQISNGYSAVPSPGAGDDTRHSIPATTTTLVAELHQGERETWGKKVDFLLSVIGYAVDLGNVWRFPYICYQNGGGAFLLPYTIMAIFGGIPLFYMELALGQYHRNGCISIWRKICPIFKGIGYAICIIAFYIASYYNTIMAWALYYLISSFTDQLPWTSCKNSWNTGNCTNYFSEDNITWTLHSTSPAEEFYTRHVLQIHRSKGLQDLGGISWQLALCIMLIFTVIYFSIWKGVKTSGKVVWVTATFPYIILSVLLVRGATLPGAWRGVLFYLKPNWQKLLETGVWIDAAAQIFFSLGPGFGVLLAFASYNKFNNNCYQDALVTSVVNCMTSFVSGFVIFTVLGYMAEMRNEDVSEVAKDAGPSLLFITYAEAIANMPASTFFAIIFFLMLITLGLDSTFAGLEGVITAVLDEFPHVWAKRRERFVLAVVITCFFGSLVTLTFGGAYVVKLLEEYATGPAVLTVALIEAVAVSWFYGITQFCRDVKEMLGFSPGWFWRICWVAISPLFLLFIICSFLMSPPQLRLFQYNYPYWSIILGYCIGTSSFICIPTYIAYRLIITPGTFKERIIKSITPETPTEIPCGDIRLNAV
The target of test [2] is Sodium-dependent dopamine transporter (Homo sapiens, UniProt Q01959).
Sequence of Sodium-dependent dopamine transporter (Q01959 whole entry): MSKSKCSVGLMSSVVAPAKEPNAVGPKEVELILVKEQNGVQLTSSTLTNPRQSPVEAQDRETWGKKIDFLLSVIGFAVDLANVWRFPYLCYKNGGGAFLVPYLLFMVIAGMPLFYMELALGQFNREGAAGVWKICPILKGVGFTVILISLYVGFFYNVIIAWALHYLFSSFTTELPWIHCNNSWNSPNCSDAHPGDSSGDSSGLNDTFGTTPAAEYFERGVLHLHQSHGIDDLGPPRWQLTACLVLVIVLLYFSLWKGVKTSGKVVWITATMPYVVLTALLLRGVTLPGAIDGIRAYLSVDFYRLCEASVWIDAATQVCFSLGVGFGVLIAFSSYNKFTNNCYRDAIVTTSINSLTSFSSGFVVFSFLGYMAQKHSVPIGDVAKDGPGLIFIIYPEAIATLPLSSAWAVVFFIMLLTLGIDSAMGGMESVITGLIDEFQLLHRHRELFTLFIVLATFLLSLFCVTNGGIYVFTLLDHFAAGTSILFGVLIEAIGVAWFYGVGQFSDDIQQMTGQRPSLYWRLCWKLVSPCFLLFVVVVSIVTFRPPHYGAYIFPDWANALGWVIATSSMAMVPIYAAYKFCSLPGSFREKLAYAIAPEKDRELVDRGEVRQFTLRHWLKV
For test [3], the target named is Voltage-gated inwardly rectifying potassium channel KCNH2 (Homo sapiens, UniProt Q12809). It is filed as functional. The note with it: read-out: AC50.
Sequence of Voltage-gated inwardly rectifying potassium channel KCNH2 (Q12809 whole entry): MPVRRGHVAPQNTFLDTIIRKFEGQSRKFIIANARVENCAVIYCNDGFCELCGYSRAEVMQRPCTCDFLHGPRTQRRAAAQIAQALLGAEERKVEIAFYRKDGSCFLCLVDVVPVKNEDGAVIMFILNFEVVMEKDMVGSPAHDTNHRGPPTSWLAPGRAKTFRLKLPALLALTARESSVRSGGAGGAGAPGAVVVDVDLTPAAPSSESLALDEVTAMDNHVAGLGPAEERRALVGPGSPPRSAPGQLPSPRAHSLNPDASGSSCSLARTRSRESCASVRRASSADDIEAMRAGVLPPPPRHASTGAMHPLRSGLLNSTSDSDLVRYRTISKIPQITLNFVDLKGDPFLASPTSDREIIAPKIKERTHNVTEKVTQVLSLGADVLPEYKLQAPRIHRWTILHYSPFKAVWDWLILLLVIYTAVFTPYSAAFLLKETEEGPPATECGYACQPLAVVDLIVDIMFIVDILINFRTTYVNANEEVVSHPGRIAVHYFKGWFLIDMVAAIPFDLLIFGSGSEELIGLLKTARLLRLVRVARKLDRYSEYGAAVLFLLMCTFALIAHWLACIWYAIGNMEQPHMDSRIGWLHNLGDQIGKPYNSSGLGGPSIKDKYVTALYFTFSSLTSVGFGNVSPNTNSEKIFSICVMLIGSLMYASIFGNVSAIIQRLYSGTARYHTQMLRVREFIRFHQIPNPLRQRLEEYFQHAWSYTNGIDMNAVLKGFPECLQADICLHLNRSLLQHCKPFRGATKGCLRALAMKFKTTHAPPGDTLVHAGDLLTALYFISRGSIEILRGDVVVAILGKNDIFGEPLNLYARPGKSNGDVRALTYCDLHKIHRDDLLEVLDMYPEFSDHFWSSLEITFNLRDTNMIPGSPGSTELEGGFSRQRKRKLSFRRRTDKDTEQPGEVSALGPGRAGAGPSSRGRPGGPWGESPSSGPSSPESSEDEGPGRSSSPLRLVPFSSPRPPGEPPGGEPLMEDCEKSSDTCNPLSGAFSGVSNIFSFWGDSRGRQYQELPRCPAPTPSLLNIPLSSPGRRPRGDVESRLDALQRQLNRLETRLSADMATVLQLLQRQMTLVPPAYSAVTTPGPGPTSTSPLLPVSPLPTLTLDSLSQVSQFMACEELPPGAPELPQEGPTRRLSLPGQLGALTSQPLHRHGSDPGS
Test [4] has as its target T1, Thromboxane A2 receptor (Homo sapiens, UniProt P21731).
T1 sequence (P21731 whole entry): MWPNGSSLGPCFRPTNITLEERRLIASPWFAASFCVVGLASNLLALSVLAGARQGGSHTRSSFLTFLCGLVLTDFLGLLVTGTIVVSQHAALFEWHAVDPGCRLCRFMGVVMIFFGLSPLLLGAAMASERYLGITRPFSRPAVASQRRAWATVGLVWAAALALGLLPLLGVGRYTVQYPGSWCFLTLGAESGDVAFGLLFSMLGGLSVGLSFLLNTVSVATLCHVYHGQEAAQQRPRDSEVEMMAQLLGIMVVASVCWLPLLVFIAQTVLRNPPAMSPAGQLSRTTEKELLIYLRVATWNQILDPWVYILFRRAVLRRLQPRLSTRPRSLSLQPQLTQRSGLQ
The format is functional, cell-based.

Test [5] addresses D(1A) dopamine receptor (Homo sapiens, UniProt P21728).
Test [6] deals with 3',5'-cyclic-AMP phosphodiesterase 4A (Homo sapiens, UniProt P27815). It is filed as functional.
For test [7], the target named is T1, Thromboxane A2 receptor. The format is functional, cell-based. This is another data set of the same source.
Test [8] deals with Acetylcholinesterase (Homo sapiens, UniProt P22303). The format is functional.
Sequence of Acetylcholinesterase (P22303 whole entry): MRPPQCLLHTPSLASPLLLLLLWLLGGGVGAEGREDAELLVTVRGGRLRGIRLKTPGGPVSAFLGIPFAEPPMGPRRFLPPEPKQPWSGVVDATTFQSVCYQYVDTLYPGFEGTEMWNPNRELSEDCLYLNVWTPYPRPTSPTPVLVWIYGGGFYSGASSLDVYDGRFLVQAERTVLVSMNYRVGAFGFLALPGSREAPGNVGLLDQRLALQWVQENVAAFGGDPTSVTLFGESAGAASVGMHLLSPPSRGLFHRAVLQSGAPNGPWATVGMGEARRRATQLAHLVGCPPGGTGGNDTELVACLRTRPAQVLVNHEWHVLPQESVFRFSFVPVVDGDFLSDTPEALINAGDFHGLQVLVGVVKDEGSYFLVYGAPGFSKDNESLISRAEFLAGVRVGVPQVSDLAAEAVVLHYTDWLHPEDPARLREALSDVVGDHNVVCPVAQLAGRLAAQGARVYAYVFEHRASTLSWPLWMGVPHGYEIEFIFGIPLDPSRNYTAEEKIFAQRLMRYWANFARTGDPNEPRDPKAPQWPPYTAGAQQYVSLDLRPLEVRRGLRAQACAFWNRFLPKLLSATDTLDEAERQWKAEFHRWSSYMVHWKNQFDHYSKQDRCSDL
Test [9] concerns the target Prothrombin (Homo sapiens, UniProt P00734). The format is functional.
Test [10] has as its target Mu-type opioid receptor (Homo sapiens, UniProt P35372).
Test [11] concerns the target Sodium-dependent noradrenaline transporter (Homo sapiens, UniProt P23975).
The target in test [12] is Prostaglandin G/H synthase 1 (Homo sapiens, UniProt P23219). The format is functional.
Sequence of Prostaglandin G/H synthase 1 (P23219 whole entry): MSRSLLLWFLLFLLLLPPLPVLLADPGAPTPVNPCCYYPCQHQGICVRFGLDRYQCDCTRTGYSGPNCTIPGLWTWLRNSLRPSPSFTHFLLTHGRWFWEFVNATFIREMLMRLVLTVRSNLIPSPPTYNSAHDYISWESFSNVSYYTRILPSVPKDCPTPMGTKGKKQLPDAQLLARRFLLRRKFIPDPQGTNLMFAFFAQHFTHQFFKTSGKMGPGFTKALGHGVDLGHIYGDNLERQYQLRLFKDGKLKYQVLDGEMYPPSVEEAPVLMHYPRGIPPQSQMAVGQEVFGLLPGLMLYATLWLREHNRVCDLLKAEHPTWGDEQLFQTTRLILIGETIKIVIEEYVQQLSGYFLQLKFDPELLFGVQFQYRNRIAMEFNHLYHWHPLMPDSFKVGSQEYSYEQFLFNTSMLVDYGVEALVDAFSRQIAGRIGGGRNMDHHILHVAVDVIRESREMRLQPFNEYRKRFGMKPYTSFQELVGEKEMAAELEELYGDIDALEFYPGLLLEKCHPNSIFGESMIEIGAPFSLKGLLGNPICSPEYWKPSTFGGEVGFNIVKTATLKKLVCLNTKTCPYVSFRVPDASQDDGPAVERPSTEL
In test [13] the target is T2, Amine oxidase [flavin-containing] A (Homo sapiens, UniProt P21397).
T2 sequence (P21397 whole entry): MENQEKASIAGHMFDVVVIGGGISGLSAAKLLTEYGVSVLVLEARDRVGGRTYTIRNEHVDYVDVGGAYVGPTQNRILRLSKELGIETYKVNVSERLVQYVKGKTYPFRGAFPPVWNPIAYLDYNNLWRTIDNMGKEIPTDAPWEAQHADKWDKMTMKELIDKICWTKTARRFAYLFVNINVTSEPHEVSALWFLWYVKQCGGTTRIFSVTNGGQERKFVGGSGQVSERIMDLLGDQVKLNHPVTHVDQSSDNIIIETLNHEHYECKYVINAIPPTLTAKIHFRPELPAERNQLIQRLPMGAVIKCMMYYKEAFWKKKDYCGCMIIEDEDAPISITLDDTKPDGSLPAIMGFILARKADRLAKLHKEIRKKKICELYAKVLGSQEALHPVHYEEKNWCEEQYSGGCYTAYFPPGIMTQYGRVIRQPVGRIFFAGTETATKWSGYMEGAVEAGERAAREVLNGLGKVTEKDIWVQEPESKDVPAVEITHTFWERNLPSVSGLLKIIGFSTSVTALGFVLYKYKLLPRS
The format is functional.

In test [14] the target is 5-hydroxytryptamine receptor 2B (Homo sapiens, UniProt P41595). The format is functional, cell-based.
Sequence of 5-hydroxytryptamine receptor 2B (P41595 whole entry): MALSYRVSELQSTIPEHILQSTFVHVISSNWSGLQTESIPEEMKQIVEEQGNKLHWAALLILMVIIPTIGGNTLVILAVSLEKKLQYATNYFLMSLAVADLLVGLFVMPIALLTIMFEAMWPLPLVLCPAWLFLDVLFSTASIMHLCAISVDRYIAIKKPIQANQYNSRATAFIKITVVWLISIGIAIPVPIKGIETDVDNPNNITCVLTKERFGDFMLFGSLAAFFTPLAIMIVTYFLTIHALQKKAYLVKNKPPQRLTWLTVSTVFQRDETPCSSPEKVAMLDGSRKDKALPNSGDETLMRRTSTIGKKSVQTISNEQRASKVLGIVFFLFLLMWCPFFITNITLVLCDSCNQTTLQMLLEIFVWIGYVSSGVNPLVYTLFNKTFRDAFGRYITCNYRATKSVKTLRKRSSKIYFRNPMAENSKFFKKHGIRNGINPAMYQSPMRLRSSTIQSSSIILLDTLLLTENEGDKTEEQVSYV
The target of test [15] is T3, Alpha-1A adrenergic receptor (Homo sapiens, UniProt P35348).
T3 sequence (P35348 whole entry): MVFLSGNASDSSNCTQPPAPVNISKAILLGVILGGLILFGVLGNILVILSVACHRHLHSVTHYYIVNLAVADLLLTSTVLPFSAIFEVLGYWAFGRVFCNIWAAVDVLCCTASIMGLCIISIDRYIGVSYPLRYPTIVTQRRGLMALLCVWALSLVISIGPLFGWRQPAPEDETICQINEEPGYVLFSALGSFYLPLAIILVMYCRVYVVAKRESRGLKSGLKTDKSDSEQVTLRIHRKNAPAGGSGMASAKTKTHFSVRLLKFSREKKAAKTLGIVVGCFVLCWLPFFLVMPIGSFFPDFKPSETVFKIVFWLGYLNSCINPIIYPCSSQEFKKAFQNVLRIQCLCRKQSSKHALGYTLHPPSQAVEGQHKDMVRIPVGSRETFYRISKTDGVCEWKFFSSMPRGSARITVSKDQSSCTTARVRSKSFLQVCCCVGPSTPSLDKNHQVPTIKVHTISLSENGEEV
The format is functional, cell-based.
Note: assay procedure not described here.

Sequence of Sodium-dependent noradrenaline transporter (P23975 whole entry): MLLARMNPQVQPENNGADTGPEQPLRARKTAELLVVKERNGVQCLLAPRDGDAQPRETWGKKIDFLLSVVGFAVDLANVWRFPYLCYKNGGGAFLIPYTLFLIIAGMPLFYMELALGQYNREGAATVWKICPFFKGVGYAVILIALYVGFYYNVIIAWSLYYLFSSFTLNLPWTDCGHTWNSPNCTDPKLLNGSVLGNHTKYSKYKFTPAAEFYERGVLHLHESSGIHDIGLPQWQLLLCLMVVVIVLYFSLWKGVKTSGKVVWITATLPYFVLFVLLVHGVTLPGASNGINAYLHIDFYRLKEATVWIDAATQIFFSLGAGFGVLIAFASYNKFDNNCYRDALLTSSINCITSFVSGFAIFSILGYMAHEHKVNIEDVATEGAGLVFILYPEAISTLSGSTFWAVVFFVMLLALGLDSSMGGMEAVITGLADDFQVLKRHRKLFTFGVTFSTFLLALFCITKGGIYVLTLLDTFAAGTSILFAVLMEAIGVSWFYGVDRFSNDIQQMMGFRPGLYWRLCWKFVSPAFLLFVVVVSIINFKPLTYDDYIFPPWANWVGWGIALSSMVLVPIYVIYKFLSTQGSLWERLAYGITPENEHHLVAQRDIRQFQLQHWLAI

`CO/N=C(\C(=O)N[C@@H]1C(=O)N2C(C(=O)OCOC(=O)C(C)(C)C)=C(C)CS[C@H]12)c1csc(N)n1`: the AC50 in test [1], in test [2], in test [3], in test [4], in [5] and in test [6] was more than 30 µM throughout. The concentration at half-maximal activity (AC50) in test [7], in [8], in test [9], in [10], in test [11] and in [12] was more than 30 µM throughout. The concentration at half-maximal activity (AC50) in [13] and in test [14] was more than 30 µM each time.
As to `CCS(=O)(=O)N1CC(CC#N)(n2cc(-c3ncnc4[nH]ccc34)cn2)C1` [BARICITINIB], the half-maximal activity concentration (AC50) in [15] is more than 10 µM; in test [1], more than 30 µM; in test [2], more than 30 µM; in test [4], more than 30 µM; in test [5] it was more than 30 µM; in test [6] it was more than 30 µM. The AC50 is more than 10 µM in [7]; more than 10 µM in test [8]; more than 30 µM in [9]; more than 30 µM in test [10]; more than 30 µM in test [11]; more than 30 µM in test [12]. The AC50 in [13] and in test [14] was more than 30 µM in each case.
With `NCc1ccccc1CC(=O)N[C@@H]1C(=O)N2C(C(=O)O)=C(CSc3nnnn3CC(=O)O)CS[C@H]12` [CEFORANIDE], the AC50 in [15], in test [1], in test [2], in test [4], in [5] and in test [6] was more than 30 µM throughout. Also, the half-maximal activity concentration (AC50) in test [7], in test [8], in test [9], in test [10], in test [11] and in test [12] was more than 30 µM throughout. The AC50 in test [13] and in test [14] was more than 30 µM throughout.
As to `COCC1=C(C(=O)OC(C)OC(=O)OC(C)C)N2C(=O)[C@@H](NC(=O)/C(=N\OC)c3csc(N)n3)[C@H]2SC1` (stereo not given in full) [CEFPODOXIME PROXETIL], the AC50 in [1], in test [2], in test [3], in test [4], in [5] and in [6] was more than 30 µM throughout. Further, the concentration at half-maximal activity (AC50) in test [7], in test [8], in test [9], in [10], in test [11] and in test [12] was more than 30 µM throughout. For the same compound, the AC50 in test [13] and in test [14] was more than 30 µM each time.
Take `NS(=O)(=O)c1cc2c(cc1Cl)NC(CC1CCCC1)NS2(=O)=O` (stereo not given) [CYCLOPENTHIAZIDE]: the half-maximal activity concentration (AC50) in [1], in test [2], in test [3], in [4], in [5] and in test [6] was more than 30 µM each time. Moreover, the AC50 in test [7], in [8], in [9], in [10], in [11] and in test [12] was more than 30 µM each time. Besides, the AC50 in test [13] and in test [14] was more than 30 µM throughout.
With `N/N=c1/cc2c(n[nH]1)CCN(C(=O)c1ccccc1)C2` [ENDRALAZINE], the AC50 in test [1], in [2], in [3], in test [4], in test [5] and in [6] was more than 30 µM each time. For the same compound, the AC50 in test [7] is more than 30 µM; in test [8] it was more than 30 µM; in test [9], more than 30 µM; in test [10], more than 30 µM; in [11], more than 30 µM; in test [12] it was 22.3 µM. Also, the half-maximal activity concentration (AC50) in [13] and in [14] was more than 30 µM in each case.
As for `CC(C)=CCC1C(=O)N(c2ccccc2)N(c2ccccc2)C1=O` [FEPRAZONE], the AC50 in [1], in [2], in test [4], in test [5], in test [6] and in test [7] was more than 30 µM in each case. The half-maximal activity concentration (AC50) in [8], in test [9], in [10], in [11], in [12] and in test [13] was more than 30 µM each time. Further, the concentration at half-maximal activity (AC50) in test [14] is more than 30 µM.
In the case of `CCOC(=O)CC(SP(=S)(OC)OC)C(=O)OCC` (stereo not given) [MALATHION], the AC50 in test [15], in [1], in test [2], in test [3], in test [4] and in [5] was more than 30 µM each time. The AC50 in [6], in test [7], in [8], in test [9], in [10] and in test [11] was more than 30 µM in each case. Further, the half-maximal activity concentration (AC50) in [12], in [13] and in [14] was more than 30 µM in each case.
As to `CN1C(=O)N(C)C2C1N(C)C(=O)N2C` (stereo not given) [MEBICAR], the AC50 in test [1], in test [2], in test [3], in [4], in test [5] and in test [6] was more than 30 µM throughout. Besides, the AC50 in test [7], in test [8], in test [9], in test [10], in test [11] and in test [12] was more than 30 µM in each case. Besides, the concentration at half-maximal activity (AC50) in test [13] and in test [14] was more than 30 µM throughout.
On to `NC(=O)c1cccc2cn(-c3ccc([C@@H]4CCCNC4)cc3)nc12` [NIRAPARIB], for which the half-maximal activity concentration (AC50) was more than 30 µM in [15]; 1.17 µM in test [1]; 0.113 µM in [2]; more than 30 µM in test [3]; more than 30 µM in test [4]; more than 30 µM in test [5]. Further, the AC50 is more than 30 µM in test [6]; more than 30 µM in test [7]; more than 30 µM in test [8]; more than 30 µM in test [9]; more than 30 µM in test [10]; 1 µM in test [11]. Besides, the AC50 in test [12], in test [13] and in [14] was more than 30 µM throughout.
On to `Nc1ccc(/N=N/c2ccccc2)c(N)n1` [PHENAZOPYRIDINE], for which the half-maximal activity concentration (AC50) in test [1] was more than 30 µM; in test [2] it was 4.71 µM; in test [3], 14 µM; in test [4], more than 30 µM; in [5], 9.35 µM; in [6], 22.5 µM. Also, the AC50 is 28.4 µM in [7]; more than 3 µM in test [8]; more than 30 µM in test [9]; more than 30 µM in [10]; 3.85 µM in [11]; 24.9 µM in [12]. The AC50 in [13] and in test [14] was more than 30 µM each time.
